In US5602100A, “Dermorphin analogs having pharmacological activity” (priority 1988, dated 1997):
Read-outs that look alike come from different tables or passages of the source. Non-standard residues stand in square brackets, D forms with d. Residues, ends and D or L forms follow the SMILES beside them. dNle = CCCC[C@@H](N)C(=O)O; dNva = CCC[C@@H](N)C(=O)O; Orn = NCCC[C@H](N)C(=O)O; Dab = NCC[C@H](N)C(=O)O; Nva = CCC[C@H](N)C(=O)O

Tests used:
hot plate stimulus = test: Mouse hot plate test; assay type: in vivo
Method: The mouse hot plate test is an assay which only detects centrally-mediated analgesic effects. This test was carried out using the protocol described in G. Woolfe and A. MacDonald, J. Pharmacol. Exp. Ther., 80, p. 300 ([…]).
Since most of the peptides of the invention were not potent centrally, it was impossible to determine an ED50 value. […] A result is considered insignificant if 30% of mice or lower have responded.

δ-opioid receptor = target: T1, δ-opioid receptor (Rattus norvegicus, UniProt P33533); test: biochemical; assay type: binding
T1 construct: displacement of the radioligands from the rat brain membrane preparations; from tissue; host or cells: rat brain membrane preparations
T1 sequence (P33533 whole entry): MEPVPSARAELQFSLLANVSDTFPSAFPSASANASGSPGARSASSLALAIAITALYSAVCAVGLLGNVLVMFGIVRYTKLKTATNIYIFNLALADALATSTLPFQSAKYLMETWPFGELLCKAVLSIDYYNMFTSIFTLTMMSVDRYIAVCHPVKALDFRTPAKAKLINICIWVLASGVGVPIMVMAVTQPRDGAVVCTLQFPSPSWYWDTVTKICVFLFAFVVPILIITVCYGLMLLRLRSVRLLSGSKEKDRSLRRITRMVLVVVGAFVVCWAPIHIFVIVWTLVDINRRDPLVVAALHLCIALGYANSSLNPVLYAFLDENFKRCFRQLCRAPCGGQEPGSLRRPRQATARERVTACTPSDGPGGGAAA

μ-opioid receptor = target: T2, μ-opioid receptor (Rattus norvegicus, UniProt P33535); test: biochemical; assay type: binding
T2 construct: displacement of the radioligands from the rat brain membrane preparations; from tissue; host or cells: rat brain membrane preparations
T2 sequence (P33535 whole entry): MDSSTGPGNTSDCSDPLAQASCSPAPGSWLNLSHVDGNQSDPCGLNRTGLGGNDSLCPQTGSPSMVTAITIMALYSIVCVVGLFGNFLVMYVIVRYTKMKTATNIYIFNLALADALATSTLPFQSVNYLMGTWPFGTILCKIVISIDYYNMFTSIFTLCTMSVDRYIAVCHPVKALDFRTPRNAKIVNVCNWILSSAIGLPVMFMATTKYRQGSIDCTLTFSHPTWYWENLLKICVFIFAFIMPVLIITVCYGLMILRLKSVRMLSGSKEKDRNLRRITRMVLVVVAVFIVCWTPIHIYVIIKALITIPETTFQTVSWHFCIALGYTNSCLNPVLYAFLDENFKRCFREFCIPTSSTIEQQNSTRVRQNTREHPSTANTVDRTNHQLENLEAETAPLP

PBQ-induced writhing [1] = test: Mouse writhing test (PBQ); assay type: in vivo; details: dose reducing the number of writhes by 50%
Method: The mouse writhing test detects both peripherally and centrally mediated analgesic effects. The test procedure is described in Siegmund et al., Proc. Soc. Exp. Biol. Med., 95, p. 729 (1957). In this test, a control group of albino mice was injected intraperitoneally with 0.3 ml/20 g body weight of a 0.02% solution of 2-phenyl-1,4-benzoquinone (PBQ). The writhing and contortional movements of the mice over the following 15 minutes were recorded. A second group of mice was given a dose of a synthetic dermorphin analog according to this invention, then allowed to wait a period of time before being administered the PBQ injection. The average number of writhes was then recorded and compared to the control group. The results of this test are expressed as the dosage of peptide that reduces the number of writhes by 50% at a given time interval (referred to as ED50).

[2] = Respiration rate (respiratory depression); assay type: in vivo, rat; details: control 142 ± 5
Method: In addition to the mouse writhing data, respiratory depression was measured in certain treated mice. Respiratory depression is a commonly observed side effect characteristic of centrally-acting opiates. These reulsts are expressed in Table 5.

guinea pig ileum (GPI) [3] = test: Ke values for naloxone as antagonist in the GPI assay; assay type: cell-based; details: mean of three determinations ± SEM
Method: κ-receptor interactions were determined by measuring Ke values for naloxone as an antagonist in the GPI assay. High Ke values (in the range of 20-30 nM) are associated with κ-receptor interactions. Low Ke values (in the range of 1-2 nM) are associated with μ-receptor interactions. Ke values for naloxone were determined from the ratio of IC50 values obtained in the presence of and in the absence of a fixed naloxone concentration. The IC50 values of the tested compounds were normalized according to published procedure (F. M. Leslie, "Methods Used for the Study of Opioid Receptors", Pharmacological Reviews, 39 (1987)).

mouse vas deferens (MVD) = assay type: cell-based
guinea pig ileum (GPI) [4] = assay type: cell-based
PBQ-induced writhing [5] = test: Mouse writhing test with prior N-methyllevallorphan (NML); assay type: in vivo; details: 10 mg/kg N-methyllevallorphan before peptide
Method: A variation of the mouse writhing experiment was also conducted to determine peripheral versus central binding preferences of certain peptides of this invention. In this experiment, 10 mg/kg of N-methyllevallorphan (NML), a known peripheral opioid antagonist, was administered to the mice before injection of the synthetic dermorphin peptide.

Molecule | % of animals showing a 50% increase (hot plate stimulus; dose 40 mg/kg, time 120 min.) [%] | Ki (δ-opioid receptor) [nM] | Ki (μ-opioid receptor) [nM] | Ki^δ /Ki^μ (μ-opioid receptor) | PBQ (20 min.) ED50 (PBQ-induced writhing [1]) | Breaths per min. ([2]; dose 30 mg/kg) [breaths per min.] | Ke (naloxone) (guinea pig ileum (GPI) [3]) [nm] | further results
CC(C)[C@@H](NC(=O)[C@@H](N)Cc1ccc(O)cc1)C(=O)N[C@@H](Cc1ccccc1)C(=O)N[C@@H](CCCCN)C(N)=O [BCH-2206, H-Tyr-D-Val-Phe-Lys-NH2] (H-Y[dV]FK-NH2) | 30 | > 2530 | 6.58 | > 384 | 4.8 mg/kg | 168 ± 13 |  | % of animals showing a 50% increase (hot plate stimulus; dose 100 mg/kg, time 120 min.): 90%
CC(C)C[C@H](NC(=O)[C@H](Cc1ccccc1)NC(=O)CNC(=O)CNC(=O)[C@@H](N)Cc1ccc(O)cc1)C(=O)O [Leu-enkephalin, [Leu^5]enkephalin, reference compound] |  |  |  |  |  |  | 1.53 ± 0.43 | 
C[C@@H](NC(=O)[C@@H](N)Cc1ccc(O)cc1)C(=O)N[C@@H](Cc1ccccc1)C(=O)N[C@@H](CCCCN)C(N)=O [BCH-1789, H-Tyr-D-Ala-Phe-Lys-NH2] (H-Y[dA]FK-NH2) | 40 | 4430 | 33.3 | 133 | 0.6 mg/kg | 182 ± 24 |  | % of animals showing a 50% increase (hot plate stimulus; dose 100 mg/kg, time 60 min.): 80%
N=C(N)NCCC[C@@H](NC(=O)[C@@H](N)Cc1ccc(O)cc1)C(=O)N[C@@H](Cc1ccccc1)C(=O)N[C@@H](CCN)C(N)=O [BCH-1764, H-Tyr-D-Arg-Phe-A2 bu-NH2] (H-Y[dR]F[Dab]-NH2) |  | 12600 | 5.78 | 2180 | 0.13 mg/kg |  | 1.32 ± 0.05 | % of animals showing a 50% increase (hot plate stimulus; dose 40 mg/kg, time 60 min.): 100%; IC50 (mouse vas deferens (MVD)): 659 ± 123 nM; MVD relative potency (mouse vas deferens (MVD)): 0.0173 ± 0.0032; GPI relative potency (guinea pig ileum (GPI) [4]): 0.956 ± 0.208; IC50 (guinea pig ileum (GPI) [4]): 257 ± 56 nM; MVD/GPI IC50 ratio (guinea pig ileum (GPI) [4]): 2.56
CCCC[C@@H](NC(=O)[C@@H](N)Cc1ccc(O)cc1)C(=O)N[C@@H](Cc1ccccc1)C(=O)N[C@@H](CCCCN)C(N)=O [BCH-2205, H-Tyr-D-Nle-Phe-Lys-NH2] (H-Y[dNle]FK-NH2) |  | 3800 | 12.4 | 306 | 1.8 mg/kg | 158 ± 7 |  | % of animals showing a 50% increase (hot plate stimulus; dose 40 mg/kg, time 30 min.): 60%; % of animals showing a 50% increase (hot plate stimulus; dose 100 mg/kg, time 60 min.): 60%; Breaths per min. ([2]; dose 100 mg/kg): 150 ± 4 breaths per min.
CCCC[C@@H](NC(=O)[C@@H](N)Cc1ccc(O)cc1)C(=O)N[C@@H](Cc1ccccc1)C(=O)N[C@@H](CCCN)C(N)=O [BCH-1763, H-Tyr-D-Nle-Phe-Orn-NH2] (H-Y[dNle]F[Orn]-NH2) | 90 |  |  | 2130 | 0.3 mg/kg | 162 ± 10 | 1.01 ± 0.18 | Ki (δ-opioid receptor; read-out: [3H]HSLET Ki^δ): 2870 nM; IC50 (mouse vas deferens (MVD)): 2290 ± 270 nM; MVD relative potency (mouse vas deferens (MVD)): 0.00498 ± 0.00058; Ki (μ-opioid receptor; read-out: [3H]DAGO Ki^μ): 1.35 nM; GPI relative potency (guinea pig ileum (GPI) [4]): 1.46 ± 0.29; IC50 (guinea pig ileum (GPI) [4]): 168 ± 33 nM; MVD/GPI IC50 ratio (guinea pig ileum (GPI) [4]): 13.6
CCC[C@H](NC(=O)[C@H](Cc1ccccc1)NC(=O)[C@@H](CCCNC(=N)N)NC(=O)[C@@H](N)Cc1ccc(O)cc1)C(N)=O [BCH-1788, H-Tyr-D-Arg-Phe-Nva-NH2] (H-Y[dR]F[Nva]-NH2) |  | > 2530 | 11.7 | > 216 | 1.3 mg/kg | 163 ± 9 |  | % of animals showing a 50% increase (hot plate stimulus; dose 40 mg/kg, time 60 min.): 45%; % of animals showing a 50% increase (hot plate stimulus; dose 100 mg/kg, time 60 min.): 60%; Breaths per min. ([2]; dose 100 mg/kg): 125 ± 4 breaths per min.
CC[C@@H](C)[C@@H](NC(=O)[C@@H](N)Cc1ccc(O)cc1)C(=O)N[C@@H](Cc1ccccc1)C(=O)N[C@@H](CCCN)C(N)=O [BCH-2456, H-Tyr-D-Ile-Phe-Orn-NH2] (H-Y[dI]F[Orn]-NH2) |  | 4280 | 4.49 | 952.35 | 0.6 mg/kg |  |  | % of animals showing a 50% increase (hot plate stimulus; dose 40 mg/kg, time 60 min.): 40%; % of animals showing a 50% increase (hot plate stimulus; dose 100 mg/kg, time 60 min.): 50%
N=C(N)NCCC[C@@H](NC(=O)[C@@H](N)Cc1ccc(O)cc1)C(=O)N[C@@H](Cc1ccccc1)C(=O)N[C@@H](CCCN)C(N)=O [BCH-1765, H-Tyr-D-Arg-Phe-Orn-NH2] | 100 |  |  | 7740 | < 1 mg/kg |  | 1.24 ± 0.12 | Ki (δ-opioid receptor; read-out: [3H]HSLET Ki^δ): 9290 nM; IC50 (mouse vas deferens (MVD)): 1090 ± 279 nM; MVD relative potency (mouse vas deferens (MVD)): 0.0105 ± 0.0027; Ki (μ-opioid receptor; read-out: [3H]DAGO Ki^μ): 1.2 nM; GPI relative potency (guinea pig ileum (GPI) [4]): 0.712 ± 0.249; IC50 (guinea pig ileum (GPI) [4]): 346 ± 121 nM; MVD/GPI IC50 ratio (guinea pig ileum (GPI) [4]): 3.15
CCC[C@@H](NC(=O)[C@@H](N)Cc1ccc(O)cc1)C(=O)N[C@@H](Cc1ccccc1)C(=O)N[C@@H](CCCCN)C(N)=O [BCH-2200, H-Tyr-D-Nva-Phe-Lys-NH2] (H-Y[dNva]FK-NH2) |  | > 2530 | 2.27 | > 1110 | 0.3 mg/kg |  |  | Antagonism of antinociceptive effect by prior NML (PBQ-induced writhing [5]): partially or totally antagonized
CC[C@@H](C)[C@@H](NC(=O)[C@@H](N)Cc1ccc(O)cc1)C(=O)N[C@@H](Cc1ccccc1)C(=O)N[C@@H](CCCCN)C(N)=O [BCH-2203, H-Tyr-D-Ile-Phe-Lys-NH2] (H-Y[dI]FK-NH2) | 80 | > 2530 | 7.49 | > 338 | 0.8 mg/kg |  |  | 
C[C@@H](NC(=O)[C@@H](N)Cc1ccc(O)cc1)C(=O)N[C@@H](Cc1ccccc1)C(=O)N[C@@H](CCCN)C(N)=O [BCH-2219, H-Tyr-D-Ala-Phe-Orn-NH2] (H-Y[dA]F[Orn]-NH2) |  | 9880 | 10.7 | 924.51 | ~ 1 mg/Kg |  |  | % of animals showing a 50% increase (hot plate stimulus; dose 40 mg/kg, time 30 min.): 60%
H-Tyr-D-Ala-Gly-Phe(NMe)-Gly-ol [DAGO, reference compound] |  |  |  |  |  |  | 0.800 ± 0.100 | IC50 (mouse vas deferens (MVD)): 950 ± 269 nM; IC50 (guinea pig ileum (GPI) [4]): 28 ± 3.7 nM
NCCC[C@H](NC(=O)[C@H](Cc1ccccc1)NC(=O)[C@@H](CO)NC(=O)[C@@H](N)Cc1ccc(O)cc1)C(N)=O [BCH-2461, H-Tyr-D-Ser-Phe-Orn-NH2] (H-Y[dS]F[Orn]-NH2) |  | 15900 | 13.2 | 1210.57 | 0.7 mg/kg |  |  | % of animals showing a 50% increase (hot plate stimulus; dose 40 mg/kg, time 30 min.): 50%
C[C@@H](NC(=O)[C@@H](N)Cc1ccc(O)cc1)C(=O)N[C@@H](Cc1ccccc1)C(=O)N[C@@H](CCN)C(N)=O [BCH-2470, H-Tyr-D-Ala-Phe-A2 bu-NH2] (H-Y[dA]F[Dab]-NH2) | 90 | 3730 | 5.91 | 630.58 | 0.3 mg/kg |  |  | 
